Results on 34 compounds are retold here after patent US20100029615A1, “BENZIMIDAZOLE DERIVATIVES” (priority 2006, published 2010).

The experiment concerns the target T1, SMO (Mus musculus, UniProt P56726).
T1 construct: endogenous in cells; host or cells: C3H10T1/2 (ATCC #CCL-226)
Kind of experiment: Smoothened (SMO)/Sonic Hedgehog (SHh) Transient Transcriptional Activation Assay (Gli-luciferase reporter in C3H10T1/2 cells). The format is cell-based, murine. The conditions noted are these: SHh 250 ng/ml, 20 hrs. The method, boiled down: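 Luminescence (Dual-Glo) measured after 20 h co-exposure at 37 °C to 250 ng/ml human SHh and compound at 2 uM down to 2 nM final. Cells were C3H10T1/2 carrying a transfected murine 10× Gli response-element luciferase construct with pEGFP, starved 20 h in 0.5% calf serum beforehand.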
(In general: Reporter assays use an easily measured gene product as a stand-in for the process of interest.)

Setting [1] is: C3H 10T1/2, 2 μM test compound, read-out: SMO CELL % INHIBITION @ 2 μM.
Where [2] appears, read: C3H 10T1/2, 2 uM test compound, read-out: SMO % inhibition at 2 uM.

Structures can show the parent of a compound that is named as a salt. Where two headings read alike, the source gives them in different places.

T1 sequence (P56726 33-793): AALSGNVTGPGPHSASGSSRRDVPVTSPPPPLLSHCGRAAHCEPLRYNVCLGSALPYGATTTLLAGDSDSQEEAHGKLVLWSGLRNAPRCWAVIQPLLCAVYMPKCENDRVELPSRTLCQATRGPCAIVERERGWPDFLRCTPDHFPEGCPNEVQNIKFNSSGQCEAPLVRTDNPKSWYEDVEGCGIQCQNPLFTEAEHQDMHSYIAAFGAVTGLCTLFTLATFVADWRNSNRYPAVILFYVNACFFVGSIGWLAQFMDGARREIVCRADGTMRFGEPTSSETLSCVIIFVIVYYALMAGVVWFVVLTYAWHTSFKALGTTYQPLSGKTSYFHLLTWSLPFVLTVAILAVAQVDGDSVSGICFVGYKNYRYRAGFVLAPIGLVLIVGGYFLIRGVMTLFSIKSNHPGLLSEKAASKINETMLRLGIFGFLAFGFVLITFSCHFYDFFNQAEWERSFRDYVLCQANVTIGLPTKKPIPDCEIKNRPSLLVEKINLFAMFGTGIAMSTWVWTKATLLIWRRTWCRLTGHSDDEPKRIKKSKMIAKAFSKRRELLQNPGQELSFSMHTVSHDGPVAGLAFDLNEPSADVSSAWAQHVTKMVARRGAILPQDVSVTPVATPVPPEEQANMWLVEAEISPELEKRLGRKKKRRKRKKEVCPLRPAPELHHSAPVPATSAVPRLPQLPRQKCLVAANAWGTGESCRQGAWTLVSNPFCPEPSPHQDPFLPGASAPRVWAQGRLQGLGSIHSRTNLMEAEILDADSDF

In general, inhibition refers to the drop in the measured response relative to a control, in per cent. In the case of `O=C(NC12CCCC(c3nc4cc(Cl)ccc4[nH]3)(C1)C2)c1ccc2c(c1)OCCO2` [Example 272, N-[5-(5-chloro-1H-benzimidazol-2-yl)bicyclo[3.1.1]hept-1-yl]-2,3-dihydro-1,4-benzodioxine-6-carboxamide], the inhibition at 2 µM under setting [1] amounted to 110%. Still for that read-out and setting: the value for `O=C(N[C@@H]1CCC[C@H](c2nc3ccccc3[nH]2)C1)c1ccc2c(c1)OCCO2` [Example 64, N-[(1R,3S)-3-(1H-benzimidazol-2-yl)cyclohexyl]-2,3-dihydro-1,4-benzodioxine-6-carboxamide triflouroacetate] was 108%; that for `O=C(Cn1ccc2sccc2c1=O)NC1CCCC(c2nc3ccccc3[nH]2)C1` (stereo not shown) [Example 127, N-[3-(1H-benzimidazol-2-yl)cyclohexyl]-2-(4-oxothieno[3,2-c]pyridin-5(4H)-yl)acetamide HCl] was 100%; that for `O=C(Nc1ccc(Cl)c(C(F)(F)F)c1)N[C@@H]1CCC[C@H](c2nc3ccccc3[nH]2)C1` [Example 238, 1-[(1R,3S)-3-(1H-benzimidazol-2-yl)cyclohexyl]-3-[4-chloro-3-(trifluoromethyl)phenyl]urea] was 114%. As to `Cc1cn2cc(CCC(=O)NC3CCCC(c4nc5ccccc5[nH]4)C3)nc2s1` (stereo not shown) [Example 116, N-[3-(1H-benzimidazol-2-yl)cyclohexyl]-3-(2-methylimidazo[2,1-b][1,3]thiazol-6-yl)propanamide triflouroacetate], under setting [1], the inhibition at 2 µM was determined as 91%. With `O=C(N[C@@H]1CCC[C@@H](c2nc3ccccc3[nH]2)C1)c1ccc2c(c1)OCCO2` [Example 241], the inhibition at 2 µM under setting [1] was found to be 63%. Still for that read-out and setting: under `Cc1cc2c(cc1C(=O)NC13CCCC(c4nc5cc(C(F)(F)F)ccc5[nH]4)(C1)C3)OCCO2` [Example 306, 7-methyl-N-{5-[5-(trifluoromethyl)-1H-benzimidazol-2-yl]bicyclo[3.1.1]hept-1-yl}-2,3-dihydro-1,4-benzodioxine-6-carboxamide] stands 110%. For `COc1cc(OC)cc(C(=O)NC2CCCC(c3nc4cc(NC(C)=O)ccc4[nH]3)C2)c1` (stereo not shown) [Example 9, N-(3-(5-Acetamido-1H-benzo[d]imidazol-2-yl)cyclohexyl)-3,5-dimethoxybenzamide], the inhibition at 2 µM under setting [2] is 87%. With `O=C(Nc1ccc(-c2ccccc2)s1)N[C@@H]1CCC[C@H](c2nc3ccccc3[nH]2)C1` [Example 229, 1-[(1R,3S)-3-(1H-benzimidazol-2-yl)cyclohexyl]-3-(5-phenyl-2-thienyl)urea], the inhibition at 2 µM under setting [1] was 108%. Still for that read-out and setting: under `CC(C)(C)c1ccc2nc(C3CCCC(NC(=O)c4ccc5c(c4)OCCO5)C3)[nH]c2c1` (stereo not shown) [Example 78, N-[3-(6-tert-butyl-1H-benzimidazol-2-yl)cyclohexyl]-2,3-dihydro-1,4-benzodioxine-6-carboxamide HCl] stands 100%; under `O=C(NC12CCCC(c3nc4cc(C(F)(F)F)ccc4[nH]3)(C1)C2)c1ccc2c(c1)OCCO2` [Example 257, N-{5-[5-(trifluoromethyl)-1H-benzimidazol-2-yl]bicyclo[3.1.1]hept-1-yl}-2,3-dihydro-1,4-benzodioxine-6-carboxamide], 107%. Still for that read-out and setting: under `O=C(NC1CCCC(c2nc3ccccc3[nH]2)C1)c1ccc(O)c(Cl)c1` (stereo not shown) [Example 147, N-[3-(1H-benzimidazol-2-yl)cyclohexyl]-3-chloro-4-hydroxybenz-amide triflouroacetate] stands 68%; under `Cc1ccc2nc([C@H]3CCC[C@@H](NC(=O)c4ccc5c(c4)OCCO5)C3)[nH]c2c1` [Example 168, N-[(1R,3S)-3-(6-methyl-1H-benzimidazol-2-yl)cyclohexyl]-2,3-dihydro-1,4-benzodioxine-6-carboxamide HCl], 106%.

Regarding `COc1ccc(NC(=O)N[C@@H]2CCC[C@H](c3nc4ccccc4[nH]3)C2)cc1` [Example 232, 1-[(1R,3S)-3-(1H-benzimidazol-2-yl)cyclohexyl]-3-(4-methoxyphenyl) urea], under setting [1], the inhibition at 2 µM was 103%. Take `COc1cc(OC)cc(C(=O)NC2CCCC(c3nc4ccc(C(F)(F)F)cc4[nH]3)C2)c1` (stereo not shown) [Example 24, 3,5-Dimethoxy-N-(3-(6-(trifluoromethyl)-1H-benzo[d]imidazol-2-yl]cyclohexyl)benzamide]: the inhibition at 2 µM under setting [2] amounted to 105%. Take `[N-]=[N+]=Nc1ccc(C(=O)NC23CCCC(c4nc5cc(C(F)(F)F)ccc5[nH]4)(C2)C3)cc1` [Example 273, 4-azido-N-{5-[5-(trifluoromethyl)-1H-benzimidazol-2-yl]bicyclo[3.1.1]hept-1-yl}benzamide]: under setting [1], the inhibition at 2 µM was 93.2%. Same read-out and setting: under `O=C(NC1CCCC(c2nc3ccccc3[nH]2)C1)c1ncc[nH]1` (stereo not shown) [Example 61, N-[3-(1H-benzimidazol-2-yl)cyclohexyl]-1H-imidazole-2-carboxamide HCl] stands 52%; under `CCc1ccc2nc(C(=O)N[C@@H]3CCC[C@H](c4nc5ccccc5[nH]4)C3)cn2c1` [Example 221, N-[(1R,3S)-3-(1H-benzimidazol-2-yl)cyclohexyl]-6-ethylimidazo[1,2-a]pyridine-2-carboxamide triflouroacetate], 48%. In the case of `CN1C(=O)COc2ccc(C(=O)N[C@@H]3CCC[C@H](c4nc5cc(C(F)(F)F)ccc5[nH]4)C3)cc21` [Example 280, 4-methyl-3-oxo-N-{(1R,3S)-3-[5-(trifluoromethyl)-1H-benzimidazol-2-yl]cyclohexyl}-3,4-dihydro-2H-1,4-benzoxazine-6-carboxamide HCl], under setting [1], the inhibition at 2 µM was 112%. For `O=C1CCc2cc(C(=O)N[C@@H]3CCC[C@H](c4nc5cc(Cl)ccc5[nH]4)C3)ccc2N1` [Example 300, N-[(1R,3S)-3-(5-chloro-1H-benzimidazol-2-yl)cyclohexyl]-2-oxo-1,2,3,4-tetrahydroquino-line-6-carboxamide (+)-tartrate], the inhibition at 2 µM under setting [1] is 106%. Same read-out and setting: the value for `O=C(NCCCCl)N[C@@H]1CCC[C@H](c2nc3ccccc3[nH]2)C1` [Example 225, 1-((1R,3S)-3-(1H-benzo[d]imidaz-ol-2-yl)cyclohexyl)-3-(3-chloropropyl)-urea] was 70%.

Turning to `COc1cc(OC)cc(C(=O)NC2CCCC(c3nc4ccc(C)cc4n3C)C2)c1` (stereo not shown) [Example 26, N-(3-(1,6-Dimethyl-1H-benzo[d]imidazol-2-yl)cyclohexyl]-3,5-dimethoxybenzamide], the inhibition at 2 µM under setting [2] was determined as 113%. Turning to `Cc1nc2cc(C(=O)N[C@@H]3CCC[C@H](c4nc5ccccc5[nH]4)C3)ccc2s1` [Example 215, N-[(1R,3S)-3-(1H-benzimidazol-2-yl)cyclohexyl]-2-methyl-1,3-benzothiazole-5-carboxamide triflouroacetate], the inhibition at 2 µM under setting [1] was 46%.

Consider `COc1cc(OC)cc(C(=O)N[C@@H]2CCCC(c3nc4cc(S(C)(=O)=O)ccc4[nH]3)C2)c1` (stereo in doubt) [Example 289, 3,5-dimethoxy-N-{(1R,3S)-3-[5-(methylsulfonyl)-1H-benzimidazol-2-yl]cyclohexyl} benzamide (+)-tartrate], for which the inhibition at 2 µM under setting [1] came out at 81%. As for `Cn1c([C@@H]2CCC[C@H](NC(=O)c3ccc4c(c3)OCCO4)C2)nc2ccccc21` [Example 21, N-((1S,3R)-3-(1-Methyl-1H-benzo[d]imidazol-2-yl)cyclohexyl)-2,3-dihydrobenzo[b](1,4]dioxine-6-carboxamide], under setting [2], the inhibition at 2 µM was 71%. For `COc1cc(OC)cc(C(=O)NC2CCCC(c3nc4ccc(C#N)cc4[nH]3)C2)c1` (stereo not shown) [Example 68, N-[3-(6-cyano-1H-benzimidazol-2-yl)cyclohexyl]-3,5-dimethoxybenz-amide], the inhibition at 2 µM under setting [1] is 89%. Take `O=C(NC1CCCC(c2nc3ccc(Cl)cc3[nH]2)C1)c1ccc2c(c1)OCCO2` (stereo not shown) [Example 85, N-[3-(6-chloro-1H-benzimidazol-2-yl)cyclohexyl]-2,3-dihydro-1,4-benzodioxine-6-carboxamide HCl]: under setting [1], the inhibition at 2 µM is 103%. On to `COc1cc(OC)cc(C(=O)NC23CCCC(c4nc5cc(C(F)(F)F)ccc5[nH]4)(C2)C3)c1` [Example 259, 3,5-dimethoxy-N-{5-[5-(trifluoromethyl)-1H-benzimidazol-2-yl)bicyclo[3.1.1]hept-1-yl}benzamide], for which the inhibition at 2 µM under setting [1] amounted to 95.5%. Regarding `Cc1cc(C)n2nc(C(=O)N[C@@H]3CCC[C@H](c4nc5ccccc5[nH]4)C3)cc2n1` [Example 194, N-[(1R,3S)-3-(1H-benzimidazol-2-yl)cyclohexyl]-5,7-dimethylpyrazolo-[1,5-a]pyrimidine-2-carboxamide triflouroacetate], the inhibition at 2 µM under setting [1] came to 47%. Still for that read-out and setting: under `CC(=O)N[C@H](Cc1ccccc1)C(=O)NC1CCCC(c2nc3ccccc3[nH]2)C1` (stereo partly drawn) [Example 123, Nalpha-acetyl-N-[3-(1H-benzimidazol-2-yl)cyclohexyl]-D-phenylalanin-amide triflouroacetate] stands 83%. As for `COc1cc(OC)cc(C(=O)NC2CCCC(c3nc4cc(C)ccc4n3C)C2)c1` (stereo not shown) [Example 27, N-(3-(1,5-Dimethyl-1H-benzo[d]imidazol-2-yl)cyclohexyl]-3,5-dimethoxybenzamide], the inhibition at 2 µM under setting [2] amounted to 84%. Consider `O=C(NC1CCCC(c2nc3ccc(F)c(F)c3[nH]2)C1)c1ccc2c(c1)OCCO2` (stereo not shown) [Example 81, N-[3-(6,7-difluoro-1H-benzimidazol-2-yl)cyclohexyl]-2,3-dihydro-1,4-benzodioxine-6-carboxamide HCl], for which the inhibition at 2 µM under setting [1] was 103%.

As to `COc1ccc(C(=O)NC2CCCC(c3nc4ccccc4[nH]3)C2)cc1` (stereo not shown) [Example 62, N-[3-(1H-benzimidazol-2-yl)cyclohexyl]-4-methoxybenz-amide HCl], the inhibition at 2 µM under setting [1] was 72%. The same measure, in the same setting: the value for `N#Cc1ccc(NC(=O)NC23CCCC(c4nc5ccccc5[nH]4)(C2)C3)cc1` [Example 256, 1-(5-(1H-benzo[d]imidaz-ol-2-yl)bicyclo[3.1.1]heptan-1-yl)-3-(4-cyanophenyl)-urea HCl] was 94%.
